Patent US11236102B2, “Oxabicycloheptane prodrugs” (Lixte Biotechnology, Inc., priority 2015, dated 2022)
Read-outs that look alike come from different tables or passages of the source.

What was measured:
in vivo [1] = details: rat, iv, 1.4 mg/kg
Procedure: 113 was dissolved in 4% NaHCO3 in saline for IV administration. The detailed procedure of dosing solution preparation was presented in Appendix I.
15 animals were placed on the study. The animals in IV arm were free access to food and water. For PO dose group, the animals were fasted overnight prior to dosing and the food was resumed 4 hours postdose.
The IV injection was conducted via foot dorsal vein. PO via oral gavage.
Blood collection: The animal is restrained manually. Approximately 200 μL of blood/time point is collected into sodium heparin tube via cardiac puncture for terminal bleeding (anesthetized under carbon dioxide). Blood sample will be put on ice and centrifuged to obtain plasma sample (2000 g, 5 min under 4° C.) within 10 minutes.
Liver collection: The animal will be euthanized with carbon dioxide inhalation. Open abdominal cavity with scissor to expose internal organs. Hold the carcass in an upright position and allow the organs to fall forward. Cut the connective tissues and remove the organs. Then the organs are rinsed with cold saline, dried on filtrate paper, placed into a screw-top tube and weighed, snap frozen by placing into dry-ice immediately.
Brain collection: Make a mid-line incision in the animals scalp and retract the skin. Using small bone cutters and rongeurs, remove the skull overlying the brain. Remove the brain using a spatula and rinse with cold saline, dried on filtrate paper, placed into a screw-top tube and weighed, snap frozen by placing into dry-ice immediately. […] Plasma, brain and liver samples were stored at approximately −80° C. until analysis. The backup samples will be discarded after three weeks after in-life completion unless requested. The unused dosing solutions will be discarded within three weeks after completion of the study.
Pharmacokinetic Analysis Software: The PK parameters were determined by non-compartmental model of non-compartmental analysis tool, Pharsight Phoenix WinNonlin® 6.2 software. […] Concentration data within 80%-120% of LLOQ was considered within normal instrumental variation and presented in the results. Terminal t1/2 calculation: Time points were automatic selected by “best fit” model for terminal half life estimation as the first option. Manual selection was applied when “best fit” could not well define the terminal phase. Results

[2] = Pharmacokinetic study of 151 (iv, oral) in SD rats: 151 and 100 in plasma; format: in vivo; details: male, rat, in vivo, iv, 1 mg/kg, 5 h
Procedure: The absolute bioavailability was evaluated.
To each sample, 160 μL of acetonitrile were added.
The mass spectrometer was operated in the positive mode.
Quantification was achieved by the external standard method.
Calibration Curve for Plasma Samples
LB100 concentrations of the LB151 plasma samples were also measured and pharmacokinetic parameters were calculated.

in vivo [3] = format: in vivo; details: rat, in vivo
Procedure: 100 was administrated via iv route at 0.5, 1.0 and 1.5 mg/kg into SD rats. The blood, liver and brain tissue samples were collected at predetermined times from rats.
Twelve (12) female SD rats per group were dosed by iv with 100. The rats were fasted overnight prior to dosing, with free access to water. Foods were withheld for 2 hours post-dose. Blood, liver and brain tissue samples in two animals each group were collected at each time point, within 10% of the scheduled time for each time point. Two extra animals were used for analytic method development. Blood (>0.3 mL) were collected via aorta abdominalis in anaesthetic animals into tubes containing heparin at 15 min, 1, 2, 6, 10 and 24 hours after iv administration. Liver and brain tissues were collected immediately after animal death. The liver and brain tissues were excised and rinsed with cold saline to avoid blood residual. Upon collection, each sample was placed on ice and the blood samples were subsequently centrifuged (4° C., 11000 rpm, 5 min) to separate plasma. The obtained plasma, liver and brain tissue samples were stored at −70° C. until LC-MS/MS analysis.
AUC0-∞ (AUCINF) is the area under the plasma concentration-time curve with last concentration extrapolated based on the elimination rate constant.

[4] = test system: PP2A in circulating white blood cells; assay: Inhibition of PP2A in circulating white blood cells after slow iv 100; format: in vivo; details: rat
[5] = test system: broad spectrum of human cancer cell lines; assay: Activity of compound 100 against human cancer cell lines; format: cell-based
U251 human GBM cells = details: compound 100 ip plus radiation
Procedure: Compound 100 is a serine-threonine phosphatase inhibitor that potentiates the activity of standard chemotherapeutic drugs and radiation. The mechanism of potentiation is impairment of multiple steps in a DNA-damage repair process and inhibition of exit from mitosis. […] Mice bearing subcutaneous (sc) xenografts of U251 human GBM cells were treated with compound 100 intraperitoneally together with radiation, each given daily for 5 days×3 courses.

[6] = Stability in the presence of microsomes; format: in vitro ADME; details: mouse, rat, dog, monkey, and human microsomes; relative to verapamil
[7] = Radiation dose enhancement by compound 100; details: compound 100 treatment
[8] = rat, in vivo
[9] = rat, in vivo; remark: listed apart in the source
[10] = female rats, day 4, cited from earlier work
[11] = female dogs, day 4, cited from earlier work
[12] = male, SD, Liver-plasma concentration ratio of 100
[13] = male, SD, liver concentration of 100
[14] = male, SD, plasma concentration of 100
[15] = male, Sprague-Dawley, Liver-plasma concentration ratio of 100

## CN1CCN(C(=O)C2C3CCC(O3)C2C(=O)O)CC1 (centres unmarked) [Compound 100]
In vivo [1]; male, SD, 6 hr
  plasma concentration of 100: 3.25 ng/mL
In vivo [1]; [12]
  Kp at 0.25 hr: 4.1
  Kp at 1 hr: 4.98
In vivo [1]; [13]
  concentration at 0.25 hr: 2090 ng/g
  concentration at 1 hr: 1360 ng/g
  concentration at 2 hr: 425 ng/g
  concentration at 6 hr: 23.8 ng/g
In vivo [1]; [14]
  concentration at 0.25 hr: 510 ng/mL
  concentration at 1 hr: 273 ng/mL
  concentration at 6 hr: 3.25 ng/mL
In vivo [1]; male, Sprague-Dawley
  AUC(0-t) ratio of liver over plasma: 399
In vivo [1]; male, Sprague-Dawley, 6 hr
  Liver-plasma concentration ratio of 100: 7.32
In vivo [1]; [15]
  Kp at 2 hr: 4.95
  Kp at 6 hr: 7.32
In vivo [1]
  AUC(0-last) in liver: 2804 ng·h/g
  AUC(0-∞) in liver: 2834 ng·h/g
  AUClast-liver/AUClast-plasma of 100: 399
[2]; Sprague-Dawley (SD)
  Plasma Concentrations of 100: 5.10 ng/mL
[2]; Sprague-Dawley
  Plasma Concentrations of 100: 10.2 ng/mL
In vivo [3]; Sprague-Dawley
  half-life: ≤ 1 h
In vivo [3]; female, Sprague-Dawley, iv, 1.5 mg/kg
  mean Cmax in plasma: 1110 to 3664 ng/mL
In vivo [3]; iv
  detectability in liver and brain tissue samples: detectable
In vivo [3]; iv, 1.5 mg/kg
  AUClast in brain: 10.8 to 125.5 ng·h/g
  AUClast in liver: 758.6 to 9081.0 ng·h/g
[4]; slow iv 100 at 0.375 mg/kg
  inhibition of PP2A in circulating white blood cells: 9%
[4]; slow iv 100 at 0.75 mg/kg
  inhibition of PP2A in circulating white blood cells: 15%
[4]; slow iv 100 at 1.5 mg/kg
  inhibition of PP2A in circulating white blood cells: 25%
[5]
  IC50: 1000 to 3000 nM
U251 human GBM cells
  recurrence of the remaining 40% of xenografts vs radiation alone: two months later
U251 human GBM cells; daily for 5 days x 3 courses, 6 months plus follow-up
  xenografts eliminated: 60%
[6]
  stability in presence of microsomes: stable relative to verapamil
[7]
  radiation dose enhancement factor: 1.45
[8]
  oral bioavailability: 1%
  plasma level after oral administration: little is present in plasma after oral administration
[9]
  passage of blood brain barrier (BBB): does not readily pass the blood brain barrier (BBB)
[10]; 0.5 mg/kg
  % AUC* Extrapolated: 5.6%
  Co: 1497 ng/mL
  DN AUClast: 904
[10]; 0.75 mg/kg
  % AUC* Extrapolated: 27%
  Co: 2347 ng/mL
  DN AUClast: 921
[10]; 1.25 mg/kg
  % AUC* Extrapolated: 17%
  Co: 3849 ng/mL
  DN AUClast: 1887
[11]; 0.15 mg/kg
  Co: 566 ng/mL
[11]; 0.30 mg/kg
  Co: 857 ng/mL
[11]; 0.50 mg/kg
  Co: 1930 ng/mL
